Reference: patent US20120165319A1, “INHIBITORS OF INTERLEUKIN-1 BETA CONVERTING ENZYME” (VERTEX PHARMACEUTICALS INCORPORATED, priority 1995, published 2012)
Where two headings read alike, the source gives them in different places.

Legend:
[1] = In vivo rat clearance assay; settings: plasma, iv
Procedure, shortened: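 Rats cannulated a day beforehand received 10–20 mg/kg by intravenous jugular dosing in propylene glycol/saline with 100 mM sodium bicarbonate. Carotid blood was sampled from 0 to 90 min, and plasma was extracted with acetonitrile/0.1% TFA for HPLC quantification. Clearance from non-linear regression pharmacokinetic analysis.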

ICE = biological target: T1, ICE (Homo sapiens, UniProt P29466); experiment: Enzyme assay with UV-visible substrate (visible ICE assay, Succinyl-Tyr-Val-Ala-Asp-pNitroanilide); type: biochemical
T1 sequence (P29466 120-297 limits assumed): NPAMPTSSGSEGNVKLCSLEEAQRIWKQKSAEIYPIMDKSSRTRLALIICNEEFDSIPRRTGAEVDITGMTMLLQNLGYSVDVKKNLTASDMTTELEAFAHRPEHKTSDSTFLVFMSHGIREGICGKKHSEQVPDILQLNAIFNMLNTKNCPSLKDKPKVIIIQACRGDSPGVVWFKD
T1 sequence (P29466 317-404 limits assumed): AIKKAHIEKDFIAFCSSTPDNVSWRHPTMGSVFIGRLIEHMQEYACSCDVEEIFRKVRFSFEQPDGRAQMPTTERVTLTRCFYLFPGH
Procedure, shortened: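 ICE preincubated with inhibitor in DMSO for 15 min at room temperature, then Suc-Tyr-Val-Ala-Asp-pNA added. pNA release read at 405-603 nm for 20 min at 37 °C, rate from linear fit in mOD/min. Ki and inhibition mode from fits of rates at varying inhibitor concentrations to standard kinetic equations.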

IL-1β, human whole blood = experiment: Whole blood assay for IL-1β production; type: cell-based; settings: Homo sapiens, read-out: Whole human blood IC50
Procedure, shortened: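 IL-1β was quantified by ELISA in plasma diluted 1:200. The plasma came from EDTA-anticoagulated human whole blood incubated at 30 °C for 16-18 h with LPS (final 5.0 ng/ml) plus a saline serial dilution of compound. Controls were no-LPS, no-inhibitor and highest-vehicle.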

[2] = * = values obtained upon reassay

Row | clearance ([1]; Table 17) | Ki (ICE; Table 17) | IC50 (IL-1β, human whole blood; Table 17) | clearance ([1]; 10-20 mg/kg) | Ki (ICE; Table 5) | IC50 (IL-1β, human whole blood; [2]) | SMILES
1 | 33.2 mL/min/kg | 5 nM | 2500 nM |  |  |  | CC(=O)N1C[C@H](NC(=O)c2cc(C)c(O)c(C)c2)C(=O)N(CC(=O)N[C@H](C=O)CC(=O)O)c2ccccc21 [Compound 671, (3S)-3-[(3S)-2-Oxo-3-(3,5-dimethyl-4-hydroxybenzoyl)amino-5-acetyl-2,3,4,5-tetrahydro-1H-1,5-benzodiazepine-1-acetylamino]-4-oxo-butyric acid]
2 | 9.9 mL/min/kg | 2.1 nM | 1200 nM |  |  |  | Cc1cc(C(=O)N[C@H]2CN(C(=O)CO)c3ccccc3N(CC(=O)N[C@H](C=O)CC(=O)O)C2=O)cc(C)c1O [Compound 691a, (3S)-3-[(3S)-2-Oxo-3-(3,5-dimethyl-4-hydroxybenzoyl)amino-5-hydroxyacetyl-2,3,4,5-tetrahydro-1H-1,5-benzodiazepine-1-acetylamino]-4-oxo-butyric acid]
3 | 13 mL/min/kg | 4.5 nM | 2900 nM |  |  |  | O=C[C@H](CC(=O)O)NC(=O)CN1C(=O)[C@@H](NC(=O)c2nccc3ccccc23)CN(C(=O)CO)c2ccccc21 [Compound 696, (3S)-3-[(3S)-2-Oxo-3-(isoquinolin-1-oyl)amino-5-hydroxyacetyl-2,3,4,5-tetrahydro-1H-1,5-benzodiazepine-1-acetylamino]-4-oxo-butyric acid]
4 | 9.1 mL/min/kg | 170 nM | 5500 nM |  |  |  | CC(=O)Nc1ccc(C(=O)NN2CCC(=O)N3CCC[C@@H](C(=O)N[C@H](C=O)CC(=O)O)N3C2=O)cc1 [Compound 1018, [3S(4S)]3-{7-[(4-Acetamido)benzamido]-6,10-Dioxo-1,2,3,4,7,8,9,10-octahydro-6H-pyridazino[1,2-a][1,2,4]-triazepine-4-carboxamido}-4-oxobutanoic acid]
5 |  |  |  | 60 mL/min/kg | 4000 nM | > 20000 nM | O=C[C@H](CC(=O)O)NC(=O)[C@@H]1CCCN2C(=O)CCN(NS(=O)(=O)c3ccccc3)C(=O)N12 [Compound 1027, [3S(4S)]3-(6,10-Dioxo-1,2,3,4,7,8,9,10-octahydro-7-phenylsulphonylamino-6H-pyridazino[1,2-a][1,2,4]triazepine-4-carboxamido)-4-oxobutanoic acid]
6 | 34 mL/min/kg | 27 nM | > 20000 nM |  |  |  | O=C[C@H](CC(=O)O)NC(=O)[C@@H]1CCCN2C(=O)CCN(NC(=O)c3cc4ccccc4s3)C(=O)N12 [Compound 1053, [3S(4S)]3-[7-(Benzo[b]thiophene-2-carbonyl)amino-6,10-dioxo-1,2,3,4,7,8,9,10-octahydro-6H-pyridazino[1,2-a][1,2,4]triazepine-4-carboxamido]-4-oxobutanoic acid]
7 | 14.5 mL/min/kg | 120 nM | 5500 nM |  |  |  | O=C[C@H](CC(=O)O)NC(=O)[C@@H]1CCCN2C(=O)CCN(NC(=O)c3cc4ccccc4[nH]3)C(=O)N12 [Compound 1075, [3S(4S)]3-[6,10-Dioxo-7-(indole-2-carboxamido)-1,2,3,4,7,8,9,10-octahydro-6H-pyridazino[1,2-a][1,2,4]triazepine-4-carboxamido]-4-oxobutanoic acid]
8 |  |  |  | 60 mL/min/kg | 9 nM | 3500 nM | COCC(=O)N1C[C@H](NC(=O)c2cccc3ccccc23)C(=O)N(CC(=O)N[C@H](C=O)CC(=O)O)c2ccccc21 [Compound 2201, (3S)-3-[(3S)-2-oxo-3-(1-naphthoyl)amino-5-methoxyacetyl-2,3,4,5-tetrahydro-1H-1,5-benzodiazepine-1-acetylamino]4-oxo-butyric acid]

Row | SMILES | clearance ([1]; Table 17) | Ki (ICE; Table 17) | IC50 (IL-1β, human whole blood; Table 17) | clearance ([1]; 10-20 mg/kg) | Ki (ICE; Table 5) | IC50 (IL-1β, human whole blood; [2])
9 | O=C[C@H](CC(=O)O)NC(=O)CN1C(=O)[C@@H](NC(=O)c2cc(Cl)c(O)c(Cl)c2)CN(C(=O)CO)c2ccccc21 [Compound 662, (3S)-3-[(3S)-2-Oxo-3-(3,5-dichloro-4-hydroxybenzoyl)amino-5-(2-hydroxy)acetyl-2,3,4,5-tetrahydro-1H-1,5-benzodiazepine-1-acetylamino]-4-oxo-butyric acid] | 2.75 mL/min/kg | 0.5 nM | 800 nM |  |  | 
10 | O=C[C@H](CC(=O)O)NC(=O)CN1C(=O)[C@@H](NC(=O)c2ccccc2)CN(C(=O)CO)c2ccccc21 [Compound 668, (3S)-3-[(3S)-2-Oxo-3-benzoylamino-5-(2-hydroxy)acetyl-2,3,4,5-tetrahydro-1H-1,5-benzodiazepine-1-acetylamino]-4-oxo-butyric acid] | 29 mL/min/kg | 9 nM | 3700 nM |  |  | 
11 | O=C[C@H](CC(=O)O)NC(=O)[C@@H]1CCCN2C(=O)CCN(NC(=O)c3ccc4c(c3)OCO4)C(=O)N12 [Compound 1015, [3S(4S)]3-[6,10-Dioxo-7-(3,4-methylenedioxybenzoylamino)-1,2,3,4,7,8,9,10-octahydro-6H-pyridazino[1,2-a][1,2,4]triazepine-4-carboxamido]-4-oxobutanoic acid] |  |  |  | 23 mL/min/kg | 40 nM | 1700 nM
